{
  "source": "patent US20160333019A1",
  "about": "“SYNTHESIS AND FORMULATIONS OF PORPHYRIN COMPOUNDS” (Aeolus Sciences, Inc., priority 2013, published 2016)",
  "format_in_all_cases": "physicochemical",
  "key": {"[1]": {"test": "Humidity stability of Form I, dynamic vapor sorption and equilibrium water uptake", "conditions": "equilibrium", "experimental": "Dynamic Vapor Sorption (DVS). Samples were analyzed using an […]™ DVS-2 gravimetric water sorption analyzer. The relative humidity was adjusted between 2-95% and the weight of sample was continuously monitored and recorded.\nHumidity Stability of Form I. Form I was exposed to a typical relative humidity range that most labs will experience e.g. 15-75% at 25° C. Initially the chamber relative humidity was adjusted at 50%. Then the RH was cycled between 15 to 75% and weight was monitored. FIG. 18 illustrates the changes in weight as a function of relative humidity. If the solid is equilibrated at 50% relative humidity the variation in weight would about ±2 wt % between 15-75% RH. Furthermore, an equilibrium study was performed at various relative humidity environments for extended time. Table 5.6 show the equilibrium % water uptake at various humidity levels."}, "[2]": {"test": "Solid form stability: vapor diffusion, drying, grinding, competitive slurry, by XRPD", "experimental": "Vapor Diffusion into Solid. Form I was used along with 21 solvent system to evaluate the effect of vapor diffusion on polymorphic behavior. About 2 mL solvent was added to a 20 mL scintillation vial. Furthermore, about 30 mg of solid was added to an open 2 mL HPLC vial and the whole vial was placed inside the bigger vial which contained the solvent. […] Both methanol and ethanol ended up with a mixture of Form I and Form VII. Form I kept its integrity at relative humidity of up to 85% which was generated using saturated potassium chloride.\nDrying and Thermal Treatment Studies. A sample was produced using 3 eq. of Mn(III) acetate. The slurry was filtered at ambient without any precautions. The relative humidity of the lab was at 54% at the time of filtration. The wet cake was washed with acetonitrile followed by XRPD analysis which conformed to Form I. The wet cake was dried on a XRPD plate with dome in the over at 40° C., under vacuum for overnight. Then, the sample holder was capped while in the oven followed by XRPD analysis. The resulting solid was a Form III. Then, the cap of the domed holder was opened and allowed the dry solid to be exposed to ambient at RH of 54%.\nWet and Dry Grinding Studies. Form I was ground using mortar and pestle under dry and wet conditions. The solvents in wet grinding were acetonitrile, acetonitrile:water (98:2) and ethyl acetate. […] It should be noted that the grinding was performed under ambient conditions where relative humidity was around 50-60%.\nCompetitive Slurry Experiments. Mixture of six crystal forms (I, II, III, V, VI and VII) were slurried in three different solvents (acetonitrile acetonitrile:water (98:2) and ethyl acetate), at 25±2° C. for 5 days followed by filtration under nitrogen inert condition. About 20 mg of each polymorph added to the vials. The total weight was […] in each vial and 0.75 mL solvent was added. After filtration, the cake was washed with the same solvent as the one used in the slurry. The cake was placed on a sample holder and sealed using the X-ray transparent dome and analyzed using XRPD. The cap was then removed and solid was dried at 45° C. and under vacuum for half a day. The dry sample was then sealed under nitrogen inert environment and analyzed by XRPD. The next step was to expose the dry sample to about 50% relative humidity for 30 minutes followed by XRPD analysis. In the case of acetonitrile, the wet cake was a new pattern designated as Form IV. In acetonitrile:water (98:2), the resulting solid was low crystalline Form I. It seemed that 2 vol % water was not enough to result in a crystalline hydrate. In the case of ethyl acetate, the solid was also low crystalline Form I plus a few extra peaks. The water in starting Form I could have been enough to result in a low crystalline Form I with some extra peaks of the starting forms in hydrophobic ethyl acetate. This was not observed in neat acetonitrile due to affinity of this solvent for water. […] Theoretically, the same water quantity in ethyl acetate results in higher water activity than in acetonitrile.\nForm II is the wet cake out of reaction mixture unexposed to moisture. Section 3.3.2.3 (reactive crystallization) describes the procedure of making Form II. FIG. 15 illustrates the XRPD of Form II. For XRPD analysis, a silicon plate with dome was used to prevent exposure to ambient. Form III is the result of drying of any of the solid forms. […] Due to instability, some peaks might be shifted if the same sample is repeated multiple times. FIG. 16 illustrates the XRPD of Form III. For XRPD analysis, a silicon plate with dome was used to prevent exposure to ambient. Form IV is the wet cake from slurrying all the solid forms in acetonitrile for at least 5 days and at room temperature. This form is unstable and upon exposure to moisture, it converts to Form I. FIG. 17 illustrates the XRPD of Form IV. For XRPD analysis, a silicon plate with dome was used to prevent exposure to ambient. […]"}, "[3]": {"test": "Air oxidation of the Mn(II) form", "experimental": "Without being bound to any particular theory, the chemistry occurring when the pH of the 75 mg/mL solution rises from 4 to 9 over the 16-24 hour period may result from the presence of different oxidation states of Mn(II) and (III).\nOne proton is consumed per one molecule of Mn (II) porphyrin complex in the oxidation process. In the absence of acid (for example in WFI water) the oxidation process is expected to be slower and generates hydroxyl-ions: […]"}},
  "data": [
    {"compound": "CCn1cc[n+](CC)c1-c1c2nc(c(-c3n(CC)cc[n+]3CC)c3ccc([n-]3)c(-c3n(CC)cc[n+]3CC)c3nc(c(-c4n(CC)cc[n+]4CC)c4ccc1[n-]4)C=C3)C=C2.O.[Cl-].[Cl-].[Cl-].[Cl-].[Cl-].[Mn+3]", "note": "[Form I, [5,10,15,20-tetrakis(1,3-diethylimidazolium-2-yl)porphyrinato]manganese(III) chloride hydrate complex]", "values": [
      {"measurement": "% water uptake", "setting": "[1]; relative humidity 20 %", "result": 13.50, "unit": "%"},
      {"measurement": "% water uptake", "setting": "[1]; relative humidity 40 %", "result": 15.01, "unit": "%"},
      {"measurement": "% water uptake", "setting": "[1]; relative humidity 75 %", "result": 16.83, "unit": "%"},
      {"measurement": "% water uptake", "setting": "[1]; relative humidity 80 %", "result": 19.06, "unit": "%"},
      {"measurement": "stability of crystal form", "setting": "[2]; ambient conditions and relative humidity as low as 15%", "result": "stable"},
      {"measurement": "relative stability among crystal forms", "setting": "[2]; competitive slurry of forms I, II, III, V, VI and VII, exposure to moisture", "result": "most stable crystal form"},
      {"measurement": "stability under grinding conditions", "setting": "[2]; dry and wet grinding, mortar and pestle, ambient, relative humidity 50-60%", "result": "pretty stable"},
      {"measurement": "relative humidity up to which the form kept its integrity", "setting": "[2]; vapor diffusion, 6 days exposure, saturated potassium chloride", "result": "up to 85%"}
    ]},
    {"compound": "CCn1cc[n+](CC)c1-c1c2nc(c(-c3n(CC)cc[n+]3CC)c3ccc([n-]3)c(-c3n(CC)cc[n+]3CC)c3nc(c(-c4n(CC)cc[n+]4CC)c4ccc1[n-]4)C=C3)C=C2.O.[Cl-].[Cl-].[Cl-].[Cl-].[Cl-].[Mn+3]", "note": "[Form III, [5,10,15,20-tetrakis(1,3-diethylimidazolium-2-yl)porphyrinato]manganese(III) chloride hydrate complex]", "values": [
      {"measurement": "% water uptake", "setting": "[1]; relative humidity 2 %", "result": 0.00, "unit": "%"},
      {"measurement": "stability of crystal form upon exposure to moisture", "setting": "[2]", "result": "unstable and rapidly converts to Form I"},
      {"measurement": "time to full conversion to Form I", "setting": "[2]; dry solid exposed to ambient at RH of 54%", "result": "less than half an hour"}
    ]},
    {"compound": "CCn1cc[n+](CC)c1-c1c2nc(c(-c3n(CC)cc[n+]3CC)c3ccc([n-]3)c(-c3n(CC)cc[n+]3CC)c3nc(c(-c4n(CC)cc[n+]4CC)c4ccc1[n-]4)C=C3)C=C2.[Mn+2]", "note": "[Mn(II) form]", "values": [
      {"measurement": "half-life of oxidation by air", "setting": "[3]; aqueous solution containing 0.1% TFA", "result": "5 to 7", "unit": "min"},
      {"measurement": "stability in air", "setting": "[3]; solid state", "result": "relatively stable"}
    ]},
    {"compound": "[5,10,15,20-tetrakis(1,3-diethylimidazolium-2-yl)porphyrinato]manganese(III) chloride hydrate complex [Form IV]", "values": [
      {"measurement": "stability of crystal form upon exposure to moisture", "setting": "[2]", "result": "unstable"}
    ]}
  ]
}
